Article PMC4904262 (ACS Medicinal Chemistry Letters, 2016)

Columns and labels:
Details in all cases: 1 µM, ATP at Km
EPHA5 = EPHA5 (Homo sapiens, UniProt P54756)
PAK4 = PAK4 (Homo sapiens, UniProt O96013)
IR = IR (Homo sapiens, UniProt P06213)
PKCDELTA = PKCDELTA (Homo sapiens, UniProt Q05655)
ITK = ITK (Homo sapiens, UniProt Q08881)
PKBGAMMA = PKBGAMMA (Homo sapiens, UniProt Q9Y243)
MEK1 = MEK1 (Homo sapiens, UniProt Q02750)
TAO1 = TAO1 (Homo sapiens, UniProt Q7L7X3)
HIPK1 = HIPK1 (Homo sapiens, UniProt Q86Z02)
ERBB4 = ERBB4 (Homo sapiens, UniProt Q15303)
CAMKI = CAMKI (Homo sapiens, UniProt Q14012)
SAPK2A = SAPK2A (Homo sapiens, UniProt Q16539)
MKK7BETA = MKK7BETA (Homo sapiens, UniProt O14733)
CDK2/CYCLINE = CDK2/CYCLINE (Homo sapiens, UniProt P24941)
MKK6 = MKK6 (Homo sapiens, UniProt P52564)
[…] = […] (Homo sapiens, UniProt Q13555)
ACK1 = ACK1 (Homo sapiens, UniProt Q07912)
PEK = PEK (Homo sapiens, UniProt Q9NZJ5)
DAPK1 = DAPK1 (Homo sapiens, UniProt P53355)
MUSK = MUSK (Homo sapiens, UniProt O15146)
LIMK1 = LIMK1 (Homo sapiens, UniProt P53667)
CK1DELTA = CK1DELTA (Homo sapiens, UniProt P48730)
IR, ACTIVATED = IR, ACTIVATED (Homo sapiens, UniProt P06213)
SRPK2 = SRPK2 (Homo sapiens, UniProt P78362)
BMX = BMX (Homo sapiens, UniProt P51813)
PKCALPHA = PKCALPHA (Homo sapiens, UniProt P17252)
IRAK4 = IRAK4 (Homo sapiens, UniProt Q9NWZ3)
ABL = ABL (Homo sapiens, UniProt P00519)
PKD2 = PKD2 (Homo sapiens, UniProt Q9BZL6)
CK1GAMMA2 = CK1GAMMA2 (Homo sapiens, UniProt P78368)
CK1GAMMA1 = CK1GAMMA1 (Homo sapiens, UniProt Q9HCP0)
RON = RON (Homo sapiens, UniProt Q04912)
CSK = CSK (Homo sapiens, UniProt P41240)
CLK2 = CLK2 (Homo sapiens, UniProt P49760)
FGFR3 = FGFR3 (Homo sapiens, UniProt P22607)
GSK3BETA = GSK3BETA (Homo sapiens, UniProt P49841)
BRK = BRK (Homo sapiens, UniProt Q13882)
PAK2 = PAK2 (Homo sapiens, UniProt Q13177)
NEK3 = NEK3 (Homo sapiens, UniProt P51956)
RIPK2 = RIPK2 (Homo sapiens, UniProt O43353)
FES = FES (Homo sapiens, UniProt P07332)
GRK7 = GRK7 (Homo sapiens, UniProt Q8WTQ7)
BRSK1 = BRSK1 (Homo sapiens, UniProt Q8TDC3)
TRKA = TRKA (Homo sapiens, UniProt P04629)
GRK6 = GRK6 (Homo sapiens, UniProt P43250)

Chain of PAK4 (O96013 whole entry): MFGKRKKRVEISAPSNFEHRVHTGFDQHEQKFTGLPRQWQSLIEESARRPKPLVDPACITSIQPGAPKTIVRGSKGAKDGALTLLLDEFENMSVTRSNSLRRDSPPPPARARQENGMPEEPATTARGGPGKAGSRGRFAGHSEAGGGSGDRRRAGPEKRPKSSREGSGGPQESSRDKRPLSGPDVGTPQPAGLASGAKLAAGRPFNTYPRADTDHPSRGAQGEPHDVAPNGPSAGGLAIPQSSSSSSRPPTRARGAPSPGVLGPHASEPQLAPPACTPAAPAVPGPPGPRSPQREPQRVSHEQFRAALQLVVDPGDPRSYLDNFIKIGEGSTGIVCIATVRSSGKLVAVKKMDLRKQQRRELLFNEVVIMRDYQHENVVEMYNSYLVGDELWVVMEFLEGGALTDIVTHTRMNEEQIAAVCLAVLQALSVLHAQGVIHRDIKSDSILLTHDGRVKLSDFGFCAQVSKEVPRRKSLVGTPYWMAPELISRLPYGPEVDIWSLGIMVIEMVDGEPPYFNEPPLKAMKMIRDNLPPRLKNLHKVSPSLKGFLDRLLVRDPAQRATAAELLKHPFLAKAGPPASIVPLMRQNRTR
Chain of IRAK4 (Q9NWZ3 whole entry): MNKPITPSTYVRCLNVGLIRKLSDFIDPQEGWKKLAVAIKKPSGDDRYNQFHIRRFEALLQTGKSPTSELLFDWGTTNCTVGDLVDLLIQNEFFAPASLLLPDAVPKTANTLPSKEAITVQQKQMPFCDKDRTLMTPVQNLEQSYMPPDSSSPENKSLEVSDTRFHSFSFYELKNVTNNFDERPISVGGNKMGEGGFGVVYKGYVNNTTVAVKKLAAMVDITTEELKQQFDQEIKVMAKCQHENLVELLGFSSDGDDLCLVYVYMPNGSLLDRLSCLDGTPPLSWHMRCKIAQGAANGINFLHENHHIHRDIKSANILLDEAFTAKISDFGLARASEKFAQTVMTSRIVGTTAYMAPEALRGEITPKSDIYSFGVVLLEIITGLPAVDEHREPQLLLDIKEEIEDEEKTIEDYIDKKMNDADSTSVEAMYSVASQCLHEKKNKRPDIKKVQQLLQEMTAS
Chain of FES (P07332 whole entry): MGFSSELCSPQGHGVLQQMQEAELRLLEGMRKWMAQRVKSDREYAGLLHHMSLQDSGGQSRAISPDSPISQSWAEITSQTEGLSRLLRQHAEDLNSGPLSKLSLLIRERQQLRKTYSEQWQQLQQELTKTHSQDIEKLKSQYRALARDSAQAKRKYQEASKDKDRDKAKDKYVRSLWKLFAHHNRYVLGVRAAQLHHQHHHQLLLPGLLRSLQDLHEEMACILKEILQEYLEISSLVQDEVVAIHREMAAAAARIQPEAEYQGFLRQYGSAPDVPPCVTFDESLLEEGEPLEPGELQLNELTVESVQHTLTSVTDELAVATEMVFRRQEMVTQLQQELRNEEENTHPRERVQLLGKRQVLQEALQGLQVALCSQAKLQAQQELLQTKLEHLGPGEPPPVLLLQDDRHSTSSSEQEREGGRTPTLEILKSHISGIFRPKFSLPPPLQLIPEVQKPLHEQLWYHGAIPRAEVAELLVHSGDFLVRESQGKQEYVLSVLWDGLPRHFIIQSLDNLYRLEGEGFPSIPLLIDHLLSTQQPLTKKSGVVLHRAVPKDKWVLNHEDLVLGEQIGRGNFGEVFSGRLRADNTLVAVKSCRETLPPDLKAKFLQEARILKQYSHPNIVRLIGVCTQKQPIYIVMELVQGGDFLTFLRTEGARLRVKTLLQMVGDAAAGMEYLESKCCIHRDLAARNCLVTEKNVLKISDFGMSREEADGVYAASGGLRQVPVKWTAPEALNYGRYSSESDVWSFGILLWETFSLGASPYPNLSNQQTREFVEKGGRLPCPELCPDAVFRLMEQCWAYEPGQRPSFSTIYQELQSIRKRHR
Chain of CK1GAMMA2 (P78368 whole entry): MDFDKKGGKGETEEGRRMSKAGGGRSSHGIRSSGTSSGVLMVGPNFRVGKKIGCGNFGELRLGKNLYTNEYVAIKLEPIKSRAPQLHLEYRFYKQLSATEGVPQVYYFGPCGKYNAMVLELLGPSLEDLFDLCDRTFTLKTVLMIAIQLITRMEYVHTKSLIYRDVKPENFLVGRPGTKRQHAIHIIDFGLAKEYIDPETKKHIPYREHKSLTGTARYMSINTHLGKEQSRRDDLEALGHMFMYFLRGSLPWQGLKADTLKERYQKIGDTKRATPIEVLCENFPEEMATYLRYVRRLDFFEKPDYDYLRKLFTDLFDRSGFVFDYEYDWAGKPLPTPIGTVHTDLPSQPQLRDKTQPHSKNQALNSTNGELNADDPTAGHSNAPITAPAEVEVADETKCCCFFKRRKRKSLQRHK
Chain of TRKA (P04629 33-796): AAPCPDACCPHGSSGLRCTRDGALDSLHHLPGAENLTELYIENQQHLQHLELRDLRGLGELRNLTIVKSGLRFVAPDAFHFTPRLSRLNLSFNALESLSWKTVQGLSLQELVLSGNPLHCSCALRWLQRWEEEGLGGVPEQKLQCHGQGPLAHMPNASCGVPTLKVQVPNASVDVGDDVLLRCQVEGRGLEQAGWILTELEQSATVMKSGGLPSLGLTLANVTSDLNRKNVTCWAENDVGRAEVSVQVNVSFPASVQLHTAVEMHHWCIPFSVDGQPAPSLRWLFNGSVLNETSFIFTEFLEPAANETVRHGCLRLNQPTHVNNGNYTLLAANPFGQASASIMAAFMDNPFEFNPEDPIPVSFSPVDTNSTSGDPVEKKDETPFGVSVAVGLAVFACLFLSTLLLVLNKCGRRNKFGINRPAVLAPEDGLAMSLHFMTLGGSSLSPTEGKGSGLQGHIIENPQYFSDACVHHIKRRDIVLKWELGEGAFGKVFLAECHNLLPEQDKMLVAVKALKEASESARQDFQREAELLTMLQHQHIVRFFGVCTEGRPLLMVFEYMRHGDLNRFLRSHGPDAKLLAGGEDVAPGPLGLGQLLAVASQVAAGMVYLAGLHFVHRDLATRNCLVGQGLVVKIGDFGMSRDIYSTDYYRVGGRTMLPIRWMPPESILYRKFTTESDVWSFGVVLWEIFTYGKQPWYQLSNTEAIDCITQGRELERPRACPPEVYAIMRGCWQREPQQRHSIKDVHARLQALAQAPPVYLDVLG
Chain of CSK (P41240 whole entry): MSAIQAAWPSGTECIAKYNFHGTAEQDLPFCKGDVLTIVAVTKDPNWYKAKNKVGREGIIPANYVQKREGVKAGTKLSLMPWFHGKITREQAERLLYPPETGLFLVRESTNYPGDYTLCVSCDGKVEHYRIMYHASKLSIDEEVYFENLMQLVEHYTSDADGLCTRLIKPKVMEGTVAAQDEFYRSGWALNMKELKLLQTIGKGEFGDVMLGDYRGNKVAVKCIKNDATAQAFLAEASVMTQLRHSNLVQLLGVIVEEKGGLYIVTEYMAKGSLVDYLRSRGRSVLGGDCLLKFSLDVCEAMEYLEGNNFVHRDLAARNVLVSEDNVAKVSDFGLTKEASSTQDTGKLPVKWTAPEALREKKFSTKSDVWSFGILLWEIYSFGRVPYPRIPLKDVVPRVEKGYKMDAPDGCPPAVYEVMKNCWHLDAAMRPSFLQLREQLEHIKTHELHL
Chain of […] (Q13555 whole entry): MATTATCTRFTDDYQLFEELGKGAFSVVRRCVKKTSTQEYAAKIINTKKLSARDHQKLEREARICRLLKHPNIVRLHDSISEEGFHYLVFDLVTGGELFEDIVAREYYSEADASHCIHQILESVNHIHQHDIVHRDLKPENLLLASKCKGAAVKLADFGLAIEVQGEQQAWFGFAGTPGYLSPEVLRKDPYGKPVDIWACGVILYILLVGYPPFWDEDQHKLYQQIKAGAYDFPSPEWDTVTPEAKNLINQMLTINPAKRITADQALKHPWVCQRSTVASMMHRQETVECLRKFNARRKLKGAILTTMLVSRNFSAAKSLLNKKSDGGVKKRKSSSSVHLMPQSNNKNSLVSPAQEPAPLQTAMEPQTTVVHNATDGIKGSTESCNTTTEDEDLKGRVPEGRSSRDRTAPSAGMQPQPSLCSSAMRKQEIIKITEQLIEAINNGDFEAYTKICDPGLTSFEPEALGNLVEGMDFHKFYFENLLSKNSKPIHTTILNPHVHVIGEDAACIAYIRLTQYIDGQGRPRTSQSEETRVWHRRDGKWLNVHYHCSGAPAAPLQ

COC1CN(C(=O)c2ccc3c(N)ncc(-c4ccc(-c5cnn(C)c5)cc4)c3n2)C1 [Compound 51]
percentage effect (EPHA5): -1%
percentage effect (PAK4): 4%
percentage effect (IR): 3%
percentage effect (PKCDELTA): 4%
percentage effect (ITK): -6%
percentage effect (PKBGAMMA): -4%
percentage effect (MEK1): -18%
percentage effect (TAO1): -1%
percentage effect (HIPK1): 5%
percentage effect (ERBB4): -8%
percentage effect (CAMKI): -10%
percentage effect (SAPK2A): -4%
percentage effect (MKK7BETA): 9%
percentage effect (CDK2/CYCLINE): -1%
percentage effect (MKK6): -4%
percentage effect ([…]): 5%
percentage effect (ACK1): 0%
percentage effect (PEK): -6%
percentage effect (DAPK1): 0%
percentage effect (MUSK): 3%
percentage effect (LIMK1): 0%
percentage effect (CK1DELTA): 1%
percentage effect (IR, ACTIVATED): -15%
percentage effect (SRPK2): 0%
percentage effect (BMX): -3%
percentage effect (PKCALPHA): -10%
percentage effect (IRAK4): -9%
percentage effect (ABL): 20%
percentage effect (PKD2): -1%
percentage effect (CK1GAMMA2): -24%
percentage effect (CK1GAMMA1): -8%
percentage effect (RON): 15%
percentage effect (CSK): 21%
percentage effect (CLK2): -18%
percentage effect (FGFR3): 7%
percentage effect (GSK3BETA): 1%
percentage effect (BRK): 10%
percentage effect (PAK2): -17%
percentage effect (NEK3): -14%
percentage effect (RIPK2): -16%
percentage effect (FES): -3%
percentage effect (GRK7): 3%
percentage effect (BRSK1): 6%
percentage effect (TRKA): -23%
percentage effect (GRK6): 4%

COC1CN(C(=O)c2ccc3c(N)ncc(-c4ccc(-c5cnn(C)c5)cc4)c3c2)C1 [Compound 59]
percentage effect (EPHA5): 3%
percentage effect (PAK4): 10%
percentage effect (IR): -15%
percentage effect (PKCDELTA): 0%
percentage effect (ITK): 2%
percentage effect (PKBGAMMA): -6%
percentage effect (MEK1): -9%
percentage effect (TAO1): 9%
percentage effect (HIPK1): 0%
percentage effect (ERBB4): -34%
percentage effect (CAMKI): -5%
percentage effect (SAPK2A): -9%
percentage effect (MKK7BETA): -23%
percentage effect (CDK2/CYCLINE): 1%
percentage effect (MKK6): -14%
percentage effect ([…]): 2%
percentage effect (ACK1): -10%
percentage effect (PEK): 1%
percentage effect (DAPK1): -5%
percentage effect (MUSK): -18%
percentage effect (LIMK1): 5%
percentage effect (CK1DELTA): -10%
percentage effect (IR, ACTIVATED): -2%
percentage effect (SRPK2): -2%
percentage effect (BMX): 1%
percentage effect (PKCALPHA): -2%
percentage effect (IRAK4): 1%
percentage effect (ABL): -10%
percentage effect (PKD2): -5%
percentage effect (CK1GAMMA2): -9%
percentage effect (CK1GAMMA1): -8%
percentage effect (RON): -11%
percentage effect (CSK): 7%
percentage effect (CLK2): -3%
percentage effect (FGFR3): -4%
percentage effect (GSK3BETA): -9%
percentage effect (BRK): 5%
percentage effect (PAK2): -18%
percentage effect (NEK3): -2%
percentage effect (RIPK2): -5%
percentage effect (FES): -7%
percentage effect (GRK7): 8%
percentage effect (BRSK1): 2%
percentage effect (TRKA): -25%
percentage effect (GRK6): 8%
